Legend:
[1] = test system: CD19+ cells from CLL patients; test: Surface CD40, CD86, CD20 on CD19+ CLL cells (flow cytometry); assay type: cell-based, human; settings: 0.5 μM lenalidomide and/or 10 μM compound, 48 hours
Description: Antibodies to CD20, CD40, CD80, CD86 or IgG1 (BD Biosciences, San Jose Calif.) were surface stained.
To extend these findings, inhibition of PI3K-δ prevented lenalidomide was investigated to see whether it induced up-regulation of other co-stimulatory molecules important to B-cell antigen presentation. […] Surface expression of CD40 or CD86 was evaluated by flow cytometry using a CD40- or CD86-PE antibodies and IgG1-PE isotype control.
Internalization of CD20 was evaluated by quantifying surface expression of CD20 by flow cytometry using a CD20-PE antibodies and IgG1-PE isotype control.

CCRF-SB cells = test: Cell cycle FACS analysis (propidium iodide); assay type: cell-based
Description: Representative fluorescence-activated cell sorting (FACS) analysis of propidium iodide-stained CCRF-SB cells under normal growth conditions, and growth in the presence of the compound of formula I. The average percentage of cells in G0-G1, S, and G2-M phases is calculated in the table below the histographs.

CC[C@H](Nc1ncnc2[nH]cnc12)c1nc2cccc(F)c2c(=O)n1-c1ccccc1 [Compound I, 5-fluoro-3-phenyl-2-[1-(9H-purin-6-ylamino)-propyl]-3H-quinazolin-4-one]
internalization of CD20 ([1]; N=5, p=0.0057): prevented this effect | surface expression of CD40 and CD86 ([1]; N=25, p=0.0102 and <0.0001): prevent the up-regulation of CD40 and CD86 induced by lenalidomide | cell cycle (CCRF-SB cells): G0/G1 cell cycle arrest
